Measured values from publication PMC5007443, “TNIK inhibition abrogates colorectal cancer stemness” (Nature Communications, 2016).

Assays:
EPHA4 = EPHA4 (Homo sapiens, UniProt P54764); experiment: Kinase selectivity profiling, EPH receptor A4; format: biochemical; details: read-out: Percentage inhibition of EPHA4
Protocol: (§1) The selectivity of compounds against a panel of 50 human protein kinases was assessed using a non-radiometric assay.

ITK = ITK (Homo sapiens, UniProt Q08881); experiment: Kinase selectivity profiling, IL2-inducible T-cell kinase; format: biochemical; details: read-out: Percentage inhibition of ITK
ITK, sequence (Q08881 whole entry): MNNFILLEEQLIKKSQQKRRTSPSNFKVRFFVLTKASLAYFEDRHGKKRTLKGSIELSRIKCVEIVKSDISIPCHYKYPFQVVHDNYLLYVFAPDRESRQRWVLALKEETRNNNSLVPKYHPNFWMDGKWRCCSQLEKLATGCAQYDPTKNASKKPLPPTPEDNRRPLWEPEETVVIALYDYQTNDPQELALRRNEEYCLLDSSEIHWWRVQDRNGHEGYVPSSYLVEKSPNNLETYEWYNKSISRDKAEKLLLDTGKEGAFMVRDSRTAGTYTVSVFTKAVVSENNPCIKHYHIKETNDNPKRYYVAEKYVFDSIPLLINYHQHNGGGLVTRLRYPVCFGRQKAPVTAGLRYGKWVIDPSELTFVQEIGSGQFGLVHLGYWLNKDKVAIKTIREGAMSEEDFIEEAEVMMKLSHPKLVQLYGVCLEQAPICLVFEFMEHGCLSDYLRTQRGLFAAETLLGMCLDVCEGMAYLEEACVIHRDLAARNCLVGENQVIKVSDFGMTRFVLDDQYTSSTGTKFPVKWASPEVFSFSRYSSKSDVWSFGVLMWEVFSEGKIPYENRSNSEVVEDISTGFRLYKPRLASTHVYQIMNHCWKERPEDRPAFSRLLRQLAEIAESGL
Protocol: as §1

AMPKα1/β1/γ1 = AMPKα1/β1/γ1 (Homo sapiens, UniProt Q13131); experiment: Kinase selectivity profiling, AMP-activated protein kinase; format: biochemical; details: read-out: Percentage inhibition of AMPKα1/β1/γ1
Protocol: as §1

DYRK1B = DYRK1B (Homo sapiens, UniProt Q9Y463); experiment: Kinase selectivity profiling, Dual-specificity tyrosine-phosphorylation regulated kinase 1B; format: biochemical; details: read-out: Percentage inhibition of DYRK1B
DYRK1B, sequence (Q9Y463 whole entry): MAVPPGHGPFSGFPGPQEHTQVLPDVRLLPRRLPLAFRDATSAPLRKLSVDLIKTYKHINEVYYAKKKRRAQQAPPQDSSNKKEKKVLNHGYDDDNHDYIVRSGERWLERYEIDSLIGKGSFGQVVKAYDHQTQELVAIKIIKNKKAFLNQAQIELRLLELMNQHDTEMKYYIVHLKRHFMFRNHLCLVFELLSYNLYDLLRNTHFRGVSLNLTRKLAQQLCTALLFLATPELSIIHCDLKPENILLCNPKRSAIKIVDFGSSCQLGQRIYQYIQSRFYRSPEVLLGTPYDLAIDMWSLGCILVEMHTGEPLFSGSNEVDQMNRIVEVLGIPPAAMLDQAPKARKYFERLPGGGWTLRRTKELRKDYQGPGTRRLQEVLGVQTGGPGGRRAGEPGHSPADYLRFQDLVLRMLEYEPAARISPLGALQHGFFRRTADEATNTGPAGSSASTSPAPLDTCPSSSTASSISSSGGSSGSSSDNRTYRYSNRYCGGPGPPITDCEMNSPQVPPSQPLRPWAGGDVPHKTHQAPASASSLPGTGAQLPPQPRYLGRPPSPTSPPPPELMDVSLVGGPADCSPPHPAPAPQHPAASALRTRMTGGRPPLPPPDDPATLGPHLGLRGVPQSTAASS
Protocol: as §1

HGK = HGK (Homo sapiens, UniProt O95819); experiment: Kinase selectivity profiling, Hematopoietic progenitor kinase; format: biochemical; details: 0.1 µM inhibitor, ATP at Km; for inhibition at 0.1 µM: read-out: Percentage inhibition of HGK
HGK, sequence (O95819 whole entry): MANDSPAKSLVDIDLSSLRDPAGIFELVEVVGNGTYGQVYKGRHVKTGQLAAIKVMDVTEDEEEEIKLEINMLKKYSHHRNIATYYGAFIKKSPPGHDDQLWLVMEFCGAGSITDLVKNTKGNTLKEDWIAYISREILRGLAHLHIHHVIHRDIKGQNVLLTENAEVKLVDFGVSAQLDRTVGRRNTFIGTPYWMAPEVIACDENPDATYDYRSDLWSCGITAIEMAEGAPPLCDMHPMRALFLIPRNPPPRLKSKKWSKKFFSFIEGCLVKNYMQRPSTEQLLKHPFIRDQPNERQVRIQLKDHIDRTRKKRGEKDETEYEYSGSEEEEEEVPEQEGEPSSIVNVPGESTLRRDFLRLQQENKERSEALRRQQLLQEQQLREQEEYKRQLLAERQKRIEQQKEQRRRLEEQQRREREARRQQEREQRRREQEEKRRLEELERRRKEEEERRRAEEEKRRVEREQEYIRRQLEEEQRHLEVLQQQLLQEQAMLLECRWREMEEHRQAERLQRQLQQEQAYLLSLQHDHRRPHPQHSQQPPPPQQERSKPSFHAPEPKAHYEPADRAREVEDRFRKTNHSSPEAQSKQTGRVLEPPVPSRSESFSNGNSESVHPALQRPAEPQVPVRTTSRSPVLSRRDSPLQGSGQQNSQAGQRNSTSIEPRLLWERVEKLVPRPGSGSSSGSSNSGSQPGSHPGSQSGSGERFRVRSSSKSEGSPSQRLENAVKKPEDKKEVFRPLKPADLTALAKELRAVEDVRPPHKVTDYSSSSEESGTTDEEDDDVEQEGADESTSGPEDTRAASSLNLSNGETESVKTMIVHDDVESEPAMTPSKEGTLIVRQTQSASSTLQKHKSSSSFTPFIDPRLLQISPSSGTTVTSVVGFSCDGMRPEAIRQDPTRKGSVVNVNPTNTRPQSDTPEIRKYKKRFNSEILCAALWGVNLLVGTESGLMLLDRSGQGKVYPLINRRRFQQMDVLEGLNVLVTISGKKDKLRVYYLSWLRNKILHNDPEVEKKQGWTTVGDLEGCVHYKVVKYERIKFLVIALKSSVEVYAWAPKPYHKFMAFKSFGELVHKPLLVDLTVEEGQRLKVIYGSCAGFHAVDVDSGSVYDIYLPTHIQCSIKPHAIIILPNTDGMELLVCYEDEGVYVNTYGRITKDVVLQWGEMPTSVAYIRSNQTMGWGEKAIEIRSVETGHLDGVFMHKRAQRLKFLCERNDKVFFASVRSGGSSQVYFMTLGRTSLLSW
Protocol: as §1

IRAK4 = IRAK4 (Homo sapiens, UniProt Q9NWZ3); experiment: Kinase selectivity profiling, Interleukin 1 receptor-associated kinase 4; format: biochemical; details: read-out: Percentage inhibition of IRAK4
IRAK4, sequence (Q9NWZ3 whole entry): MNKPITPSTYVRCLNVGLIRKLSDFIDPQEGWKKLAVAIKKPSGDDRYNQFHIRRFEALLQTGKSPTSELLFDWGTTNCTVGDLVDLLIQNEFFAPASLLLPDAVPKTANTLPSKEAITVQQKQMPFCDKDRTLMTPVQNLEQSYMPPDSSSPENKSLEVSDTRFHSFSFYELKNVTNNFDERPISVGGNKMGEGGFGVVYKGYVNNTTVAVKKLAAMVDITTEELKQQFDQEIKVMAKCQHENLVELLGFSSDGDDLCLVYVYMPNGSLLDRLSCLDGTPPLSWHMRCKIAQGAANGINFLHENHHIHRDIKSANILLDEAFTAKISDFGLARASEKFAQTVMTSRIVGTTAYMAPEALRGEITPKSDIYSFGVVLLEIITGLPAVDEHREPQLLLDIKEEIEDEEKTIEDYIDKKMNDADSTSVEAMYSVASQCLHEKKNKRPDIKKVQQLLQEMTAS
Protocol: as §1

PKCα = PKCα (Homo sapiens, UniProt P17252); experiment: Kinase selectivity profiling, Protein kinase C-α; format: biochemical; details: read-out: Percentage inhibition of PKCα
Protocol: as §1

SGK = SGK (Homo sapiens, UniProt O00141); experiment: Kinase selectivity profiling, Serum/glucocorticoid regulated kinase; format: biochemical; details: read-out: Percentage inhibition of SGK
SGK, sequence (O00141 whole entry): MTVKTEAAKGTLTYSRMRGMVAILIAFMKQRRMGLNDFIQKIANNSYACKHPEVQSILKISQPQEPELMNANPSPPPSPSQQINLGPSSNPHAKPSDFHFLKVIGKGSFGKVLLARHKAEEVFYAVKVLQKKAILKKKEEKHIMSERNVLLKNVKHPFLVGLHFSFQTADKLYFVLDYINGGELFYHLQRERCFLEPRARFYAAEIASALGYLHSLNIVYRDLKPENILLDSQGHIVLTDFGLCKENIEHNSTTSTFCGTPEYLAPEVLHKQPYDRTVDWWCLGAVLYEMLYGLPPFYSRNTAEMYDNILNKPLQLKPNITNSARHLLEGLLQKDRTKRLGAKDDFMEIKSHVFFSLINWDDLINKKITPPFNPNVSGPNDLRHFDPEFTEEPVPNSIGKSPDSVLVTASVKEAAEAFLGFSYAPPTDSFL
Protocol: as §1

[1] = test system: Wnt target genes (AXIN2, MYC, CCND1) and TNIK; experiment: RT-PCR of TNIK and Wnt target genes in HCT116 cells; format: cell-based, human; details: HCT116, 24 h
Protocol: (§2) Total RNA was prepared with an RNeasy Mini Kit (Qiagen). cDNA was synthesized using SuperScript II reverse transcriptase (Thermo Fisher Scientific) or a High-Capacity cDNA reverse transcription kit (Thermo Fisher Scientific) and subjected to TaqMan gene expression assay using pre-designed primer and probe sets (listed in Supplementary Table 3). Amplification data measured as an increase in reporter fluorescence were collected using the StepOne Real-Time PCR System (Thermo Fisher Scientific). The relative mRNA expression level normalized to the internal control (human/mouse β-actin (ACTB/Actb1) gene) was calculated by the comparative threshold cycle (CT) method. Experiments were performed in triplicate and repeated at least two times.

[2] = test system: TNIK, AXIN2, c-MYC, LRP6, LRP5 proteins; experiment: Immunoblotting of TNIK, AXIN2, c-MYC, LRP6, LRP5 in HCT116 and DLD-1 cells; format: cell-based, human; details: HCT116 and DLD-1, 48 h
Protocol: (§3) Protein samples were fractionated by SDS–PAGE and blotted onto Immobilon-P membranes (Millipore) as described previously. After incubation with the primary antibodies (listed in Supplementary Table 4) at 4 °C overnight, the blots were detected with the relevant horseradish peroxidase-conjugated anti-mouse or anti-rabbit IgG antibody (Cell Signaling Technology) and Western lighting ECL Pro (PerkinElmer). Signals were visualized with the LAS-4010 system (GE Healthcare). Uncropped versions of the blots in Figs 2e and 3f are shown in Supplementary Fig. 15.

HCT116 cells [3] = experiment: Drug sensitivity assay, ATP production, 2D culture; format: cell-based; details: Homo sapiens, HCT-116; HCT116, 2D culture, 72 h; read-out: IC50, ATP production (cell growth)
Protocol: Cells were seeded at a density of 3,000 cells per well in 96-well plates. Twenty-four hours after seeding, the cells were exposed to serially diluted compounds (0.003, 0.01, 0.03, 0.1, 0.3, 1, 3 and 10 μM) and incubated for 72 h (Fig. 3a). Patient-derived colorectal cancer spheroids were dissociated into single cells with Accutase (Nacalai Tesque) and seeded at a density of 3,000 cells per well into Ultra-Low attachment multiwall 96-well plates (Corning; Fig. 6d). ATP was measured with a CellTiter-Glo Luminescent Cell Viability Assay kit (Promega). Experiments were performed in triplicate and repeated at least two times.

[4] = test system: Wnt-target genes (AXIN2, MYC and CCND1); experiment: Pharmacodynamics: Wnt-target gene expression in HCT116 xenografts, RT-PCR; format: in vivo, mouse; details: single oral dose 90 or 150 mg kg−1 NCB-0846 HCl
Protocol: as §2

HCT116 cells [5] = experiment: PARP-1 cleavage, immunoblotting; format: cell-based, human; details: HCT116, 1 μM, 24 or 48 h
Protocol: as §3

[6] = test system: patient-derived colorectal cancer spheroids #6; experiment: Limiting dilution analysis of sphere reformation, spheroids #6; format: cell-based, human; details: spheroids #6, 3-day Treatment
Protocol: Spheroids were gently dissociated into single cells with the use of StemPro Accutase (Thermo Fisher Scientific), and 1,000, 100, 10 or 1 viable cells were seeded into each well of a 96-well U-bottom PrimeSurface plate (Supplementary Figs 10b and 12). Experiments were performed in triplicate and repeated at least two times.

[7] = test system: patient-derived colon cancer spheroid #6 xenograft; experiment: Xenograft of patient-derived spheroid #6 in NOD/ShiJic-scid mice; format: in vivo, mouse; details: NCB-0846 HCl oral 50 or 100 mg kg−1 BID, 6-days-on, 1-day-off
Excerpt: Patient-derived colorectal cancer spheroids were dissociated, resuspended in medium containing 50% Matrigel (Corning), and inoculated subcutaneously (#6; 1 × 10^4 cells per injection, #19; 1 × 10^5 cells per injection) into the flank of female NOD/ShiJic-scid mice (4-week-old females; CLEA Japan). When the tumour volume reached ∼200 mm^3, the mice were randomized according tumour volume (10 mice per group) and treatment was started.
Tumour volume was estimated based on the formula: (length × width^2)/2. The tumour volume (twice a week) and body weight (every day) of each mouse were recorded. The patient-derived spheroids and xenografts were established after obtaining informed consent from the donors.

[8] = test system: CD44 and Ki67 expression in xenografts; experiment: Immunohistochemistry of spheroid #6 xenografts; format: in vivo, mouse; details: spheroid #6 xenografts resected after treatment
Protocol: Immunoperoxidase staining (Fig. 6g) was performed using the Ventana DABMap detection kit and an automated slide stainer (Discovery XT, Ventana Medical Systems)[56].

EPHA4, sequence (P54764 20-986): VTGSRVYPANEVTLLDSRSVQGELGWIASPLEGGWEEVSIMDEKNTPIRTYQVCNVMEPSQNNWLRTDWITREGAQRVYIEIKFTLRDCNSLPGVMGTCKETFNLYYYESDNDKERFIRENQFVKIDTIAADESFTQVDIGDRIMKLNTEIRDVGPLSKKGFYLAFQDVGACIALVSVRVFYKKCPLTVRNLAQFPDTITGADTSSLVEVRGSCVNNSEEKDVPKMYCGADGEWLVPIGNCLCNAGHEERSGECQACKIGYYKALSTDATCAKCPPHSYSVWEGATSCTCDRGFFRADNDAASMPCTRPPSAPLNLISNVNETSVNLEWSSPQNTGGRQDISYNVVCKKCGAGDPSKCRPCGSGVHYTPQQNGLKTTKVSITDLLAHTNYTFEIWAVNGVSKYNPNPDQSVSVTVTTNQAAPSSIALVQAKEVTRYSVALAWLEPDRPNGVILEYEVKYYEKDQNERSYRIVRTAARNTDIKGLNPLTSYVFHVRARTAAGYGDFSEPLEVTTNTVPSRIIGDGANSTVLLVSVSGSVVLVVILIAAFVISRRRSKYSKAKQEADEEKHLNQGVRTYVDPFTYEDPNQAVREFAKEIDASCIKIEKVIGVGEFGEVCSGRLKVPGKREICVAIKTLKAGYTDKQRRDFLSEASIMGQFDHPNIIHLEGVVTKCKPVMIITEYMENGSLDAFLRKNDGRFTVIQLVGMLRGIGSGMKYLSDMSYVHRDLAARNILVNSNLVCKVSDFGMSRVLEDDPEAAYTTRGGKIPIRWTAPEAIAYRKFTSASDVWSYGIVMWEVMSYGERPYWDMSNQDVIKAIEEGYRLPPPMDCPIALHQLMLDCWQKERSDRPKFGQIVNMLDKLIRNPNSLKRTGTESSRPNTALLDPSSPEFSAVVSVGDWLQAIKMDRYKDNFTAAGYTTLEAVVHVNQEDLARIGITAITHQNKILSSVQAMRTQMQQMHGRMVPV

SMILES | inhibition at 0.1 µM (EPHA4) | inhibition at 0.1 µM (ITK) | inhibition at 0.1 µM (AMPKα1/β1/γ1) | inhibition at 0.1 µM (DYRK1B) | inhibition at 0.1 µM (HGK) | inhibition at 0.1 µM (IRAK4) | inhibition at 0.1 µM (PKCα) | inhibition at 0.1 µM (SGK) | IC50 (HCT116 cells [3]) | Sphere-containing wells/total wells ([6]; 0.1 μM, 1 cell per well) | Sphere-containing wells/total wells ([6]; 0.1 μM, 10 cells per well) | Sphere-containing wells/total wells ([6]; 0.1 μM, 100 cells per well) | Sphere-containing wells/total wells ([6]; 0.1 μM, 1000 cells per well) | Sphere-containing wells/total wells ([6]; 0.3 μM, 1 cell per well) | Sphere-containing wells/total wells ([6]; 0.3 μM, 10 cells per well) | Sphere-containing wells/total wells ([6]; 0.3 μM, 100 cells per well) | Sphere-containing wells/total wells ([6]; 0.3 μM, 1000 cells per well) | Sphere-containing wells/total wells ([6]; 1.0 μM, 1 cell per well) | Sphere-containing wells/total wells ([6]; 1.0 μM, 10 cells per well) | Sphere-containing wells/total wells ([6]; 1.0 μM, 100 cells per well) | further results
O[C@H]1CC[C@@H](Oc2cccc3cnc(Nc4ccc5nc[nH]c5c4)nc23)CC1 [NCB-0846, cis-4-(2-(3H-benzo[d]imidazol-5-ylamino)quinazolin-8-yloxy)cyclohexanol] | 5.5% | 10% | 31.5% | 8.9% | > 80% | 14.7% | -0.9% | 14.7% | 360 nM | 12/96 | 77/96 | 96/96 | 96/96 | 3/96 | 72/96 | 96/96 | 96/96 | 2/96 | 49/96 | 94/96 | Percentage inhibition of HGK (HGK; 0.1 µM): 80.5%; expression of AXIN2 gene [1]: reduced; expression of CCND1 gene [1]: not affected; expression of MYC gene [1]: reduced; expression of TNIK gene [1]: reduced; LRP6 and LRP5 protein expression [2]: downregulated; expression of TNIK, AXIN2 and cMYC at the protein level [2]: reduced; expression of Wnt-target genes (AXIN2, MYC and CCND1) in xenografts [4]: reduced; Cleavage of PARP-1 (HCT116 cells [5]): induction of apoptosis; Sphere-containing wells/total wells ([6]; 1.0 μM, 1000 cells per well): 96/96; growth of tumours [7]: suppressed; CD44 expression in xenografts [8]: suppression; Ki67 expression in xenografts [8]: modest decrease
O[C@H]1CC[C@H](Oc2cccc3cnc(Nc4ccc5nc[nH]c5c4)nc23)CC1 [NCB-0970] | 2.3% | 9% | 9.3% | -2.4% | 21.8% | 6.3% | 1.4% | 6.6% | 2400 nM | 8/96 | 83/96 | 96/96 | 96/96 | 10/96 | 87/96 | 96/96 | 96/96 | 1/96 | 50/96 | 96/96 | Sphere-initiating cell frequency, Estimate ([6]; 1.0 μM): 1/15; Sphere-containing wells/total wells ([6]; 1.0 μM, 1000 cells per well): 96/96
